Legend:
MAO-A = molecular target: T1, MAO-A (Homo sapiens, UniProt P21397); conditions: cited from earlier work
T1 sequence (P21397 1-527): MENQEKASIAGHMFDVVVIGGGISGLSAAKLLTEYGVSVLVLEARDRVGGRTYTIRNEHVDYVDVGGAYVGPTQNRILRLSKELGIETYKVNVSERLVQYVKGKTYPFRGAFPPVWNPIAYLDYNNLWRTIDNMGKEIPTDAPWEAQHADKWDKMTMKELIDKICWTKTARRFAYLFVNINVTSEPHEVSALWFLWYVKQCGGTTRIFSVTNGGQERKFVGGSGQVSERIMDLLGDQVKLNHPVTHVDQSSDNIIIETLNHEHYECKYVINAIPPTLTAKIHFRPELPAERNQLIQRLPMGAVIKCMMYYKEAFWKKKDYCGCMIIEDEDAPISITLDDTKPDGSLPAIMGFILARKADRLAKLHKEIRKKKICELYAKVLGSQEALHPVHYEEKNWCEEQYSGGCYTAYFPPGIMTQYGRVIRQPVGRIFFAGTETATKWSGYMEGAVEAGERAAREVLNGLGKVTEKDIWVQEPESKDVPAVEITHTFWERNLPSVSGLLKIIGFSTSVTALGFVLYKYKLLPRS

[1] = Phase 1 single dose escalation pharmacokinetics; conditions: for Clast / Cmax/Dose / Tlast / % AUCextrap / AUCinf/Dose / kel / AUC(0-t): mean; for Cmax / Tmax / concentration at 24 h / AUC(0-t) / AUC(0-inf) / CL/F / Vd/F / half-life: male, human, plasma, po
Procedure: Methods: The trial was a Phase 1, single center, double-blind, placebo-controlled, sequential group, acute dose escalation study of the safety and pharmacokinetics of seven (7) CX157 dose levels in healthy male volunteers. Each of the seven (7) dose groups consisted of six (6) subjects, with the exception of cohort 2 (CX157 10 mg or placebo) which enrolled only five (5) subjects. Within each dose group, four (4) subjects were randomized to CX157 and two (2) subjects to placebo. Subjects were normal healthy volunteers confined to the study center for approximately 4 days, beginning approximately 16 hours before exposure to study drug and ending approximately 48 hours after exposure to study drug. Safety and tolerability was assessed for each dose group by the Principal Investigator before advancing to the next scheduled dose group. CX157 was administered as a fully solubilized microemulsion in Labrasol™
Plasma samples for the pharmacokinetic analysis of CX157 were obtained at predose (30 minutes prior to dosing), 10, 20, 30, 60 and 90 minutes, 2, 4, 8, 12, 16, 24, 36 and 48 hours after dosing. […] FIG. 11 details the plasma concentrations of CX157 (in ng/mL) of subjects for each of the seven dose groups, wherein the dosage amounts of CX157 administered to the subjects were 5 mg, 10 mg, 15 mg, 20 mg, 40 mg, 80 mg, and 120 mg.
Formulation: Each natural/transparent Licaps® size 0 hard gelatin capsule contains 5 mg or 10 mg CX157 in Labrasol™; each capsule is banded with a green gelatin band that is comprised of gelatin NF and polysorbate-80 NF. CX157 Liquid Filled Capsules are packaged in white, opaque, high density polyethylene (HDPE) bottles with screw-top polypropylene child resistant caps. Each bottle contains 30 capsules per bottle. CX157 Liquid Filled Capsules, 5 mg and 10 mg are stored long-term at controlled room temperature conditions [i15° C. to 30° C. (59° F. to 86° F.)].

[2] = healthy males, single oral 5 mg
[3] = healthy males, single oral 10 mg
[4] = healthy males, single oral 15 mg
[5] = healthy males, single oral 20 mg
[6] = healthy males, single oral 40 mg
[7] = healthy males, single oral 80 mg

O=S1(=O)c2ccc(F)cc2Oc2cc(OCC(F)(F)F)ccc21 [CX157, 3-fluoro-7(2,2,2-trifluorethoxy)phenoxathiine-10,10-dioxide]
potency for MAO-A inhibition relative to moclobemide (MAO-A): more than 100 times | Clast [1, 2]: 0.15 ng/mL | Cmax/Dose [1, 2]: 87 | Tlast [1, 2]: 17 h | % AUCextrap [1, 3]: 6.2% | AUCinf/Dose [1, 3]: 906 | Clast [1, 3]: 0.2 ng/mL | Cmax/Dose [1, 3]: 182 | Tlast [1, 3]: 40 h | kel [1, 3]: 0.0371 h⁻¹ | % AUCextrap [1, 4]: 5% | AUCinf/Dose [1, 4]: 673 | Clast [1, 4]: 0.38 ng/mL | Cmax/Dose [1, 4]: 212 | Tlast [1, 4]: 45 h | kel [1, 4]: 0.0529 h⁻¹ | % AUCextrap [1, 5]: 3.1% | AUCinf/Dose [1, 5]: 701 | Clast [1, 5]: 0.24 ng/mL | Cmax/Dose [1, 5]: 251 | Tlast [1, 5]: 48 h | kel [1, 5]: 0.0488 h⁻¹ | % AUCextrap [1, 6]: 3.3% | AUCinf/Dose [1, 6]: 619 | Clast [1, 6]: 0.48 ng/mL | Cmax/Dose [1, 6]: 234 | Tlast [1, 6]: 48 h | kel [1, 6]: 0.0459 h⁻¹ | % AUCextrap [1, 7]: 5.2% | AUCinf/Dose [1, 7]: 720 | Clast [1, 7]: 1.9 ng/mL | Cmax/Dose [1, 7]: 232 | Tlast [1, 7]: 48 h | kel [1, 7]: 0.0456 h⁻¹ | Cmax ([1]; 5 mg): 5.8 ng/mL | Tmax ([1]; 5 mg): 0.75 h | concentration at 24 h ([1]; 5 mg): 0.14 ng/mL | AUC(0-t) ([1]; 5 mg, AUC0-24, healthy males, single oral 5 mg): 21.6 ng·h/mL | AUC(0-t) ([1]; 5 mg, AUClast, healthy males, single oral 5 mg): 16.5 ng·h/mL | AUC(0-inf) ([1]; 10 mg): 102 ng·h/mL | CL/F ([1]; 10 mg): 19.7 mL/min/kg | Cmax ([1]; 10 mg): 20.8 ng/mL | Tmax ([1]; 10 mg): 1.17 h | Vd/F ([1]; 10 mg): 33.3 L/kg | concentration at 24 h ([1]; 10 mg): 0.37 ng/mL | half-life ([1]; 10 mg): 18.9 h | AUC(0-t) ([1]; 10 mg, AUC0-24, healthy males, single oral 10 mg): 63 ng·h/mL | AUC(0-t) ([1]; 10 mg, AUC0-48, healthy males, single oral 10 mg): 96 ng·h/mL | AUC(0-t) ([1]; 10 mg, AUClast, healthy males, single oral 10 mg): 69 ng·h/mL | AUC(0-inf) ([1]; 15 mg): 129 ng·h/mL | CL/F ([1]; 15 mg): 30.2 mL/min/kg | Cmax ([1]; 15 mg): 42.2 ng/mL | Tmax ([1]; 15 mg): 0.88 h | Vd/F ([1]; 15 mg): 33.7 L/kg | concentration at 24 h ([1]; 15 mg): 1 ng/mL | half-life ([1]; 15 mg): 13.3 h | AUC(0-t) ([1]; 15 mg, AUC0-24, healthy males, single oral 15 mg): 107 ng·h/mL | AUC(0-t) ([1]; 15 mg, AUC0-48, healthy males, single oral 15 mg): 129 ng·h/mL | AUC(0-t) ([1]; 15 mg, AUClast, healthy males, single oral 15 mg): 122 ng·h/mL | AUC(0-inf) ([1]; 20 mg): 154 ng·h/mL | CL/F ([1]; 20 mg): 26.5 mL/min/kg | Cmax ([1]; 20 mg): 56.1 ng/mL | Tmax ([1]; 20 mg): 0.75 h | Vd/F ([1]; 20 mg): 32.9 L/kg | concentration at 24 h ([1]; 20 mg): 0.74 ng/mL | half-life ([1]; 20 mg): 14.4 h | AUC(0-t) ([1]; 20 mg, AUC0-24, healthy males, single oral 20 mg): 139 ng·h/mL | AUC(0-t) ([1]; 20 mg, AUC0-48, healthy males, single oral 20 mg): 149 ng·h/mL | AUC(0-t) ([1]; 20 mg, AUClast, healthy males, single oral 20 mg): 149 ng·h/mL | AUC(0-inf) ([1]; 40 mg): 321 ng·h/mL | CL/F ([1]; 40 mg): 29.9 mL/min/kg | Cmax ([1]; 40 mg): 123 ng/mL | Tmax ([1]; 40 mg): 0.83 h | Vd/F ([1]; 40 mg): 38.1 L/kg | concentration at 24 h ([1]; 40 mg): 1.4 ng/mL | half-life ([1]; 40 mg): 15.6 h | AUC(0-t) ([1]; 40 mg, AUC0-24, healthy males, single oral 40 mg): 291 ng·h/mL | AUC(0-t) ([1]; 40 mg, AUC0-48, healthy males, single oral 40 mg): 309 ng·h/mL | AUC(0-t) ([1]; 40 mg, AUClast, healthy males, single oral 40 mg): 309 ng·h/mL | AUC(0-inf) ([1]; 80 mg): 772 ng·h/mL | CL/F ([1]; 80 mg): 25.3 mL/min/kg | Cmax ([1]; 80 mg): 245 ng/mL | Tmax ([1]; 80 mg): 1 h | Vd/F ([1]; 80 mg): 33.5 L/kg | concentration at 24 h ([1]; 80 mg): 5.5 ng/mL | half-life ([1]; 80 mg): 15.3 h | AUC(0-t) ([1]; 80 mg, AUC0-24, healthy males, single oral 80 mg): 647 ng·h/mL | AUC(0-t) ([1]; 80 mg, AUC0-48, healthy males, single oral 80 mg): 730 ng·h/mL | AUC(0-t) ([1]; 80 mg, AUClast, healthy males, single oral 80 mg): 730 ng·h/mL

— patent publication US12263155B2, “Combinations of monoamine oxidase inhibitors and serotonin receptor agonists and their therapeutic use” (Remedi, Inc., priority 2022, dated 2025)
